Experimental data as given in patent publication US20070167490A1, “Imino ether derivative compounds and drugs containing the compounds as the active ingredient” (Ono Pharmaceutical Co Ltd, priority 2003, published 2007).

| melting point [°C] | Compound |
| --- | --- |
| 117 to 120 | CC/C(=N\OCCOc1cccc(CC(=O)O)c1)c1ccc(-c2cccs2)cc1 [14(30), (3-{2-[({(1E)-1-[4-(2-thienyl)phenyl]propylidene}amino)oxy]ethoxy}phenyl)acetic acid] |
| 143.5 to 147 | CC/C(=N\OCCOc1cccc(CC(=O)O)c1)c1ccc(-n2cccn2)cc1 [14(35), (3-{2-[({(1E)-1-[4-(1H-pyrazol-1-yl)phenyl]propylidene}amino)oxy]ethoxy}phenyl)acetic acid] |
